This assay addresses HIV-1 protease (Human immunodeficiency virus type 1 group M subtype B, UniProt P04585). Put plainly: biochemical. The conditions noted are these: for inhibition at 0.123 µM: read-out: HIV-1 Protease % Inhib, dose 0.123 uM; for inhibition at 0.37 µM: read-out: HIV-1 Protease % Inhib, dose 0.370 uM; for inhibition at 1.1 µM: read-out: HIV-1 Protease % Inhib, dose 1.100 uM. Summed up:
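Percent inhibition derived from fluorescent cleavage product separated by filtration after streptavidin-bead capture of intact biotin/FITC substrate. Reaction: enzyme (10 μl, 0.1 μM stock) with substrate (20 μl, 0.2 μM stock) and compound, 1 h at room temperature in dark, pH 5.5 acetate buffer with 1.0 M NaCl and 0.05% NP-40.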

The mark [1] stands for this setting: read-out: HIV-1 Protease % Inhib, dose 3.300 uM.
[2] abbreviates: read-out: HIV-1 Protease % Inhib, dose 10.000 uM.
The mark [3] stands for this setting: read-out: HIV-1 Protease % Inhib, dose 30.000 uM.

Read-outs that look alike come from different tables or passages of the source.

For the molecule `O=c1oc2c(c(O)c1C(c1cccc(NS(=O)(=O)c3cccc4cccnc34)c1)C1CC1)CCCCCC2` (centres unmarked) [Example 263, N-[3-[Cyclopropyl(5,6,7,8,9, 10-hexahydro4-hydroxy-2-oxo-2H-cycloocta[b]pyran-3-yl)methyl]phenyl]-8-quinolinesulfonamide], the inhibition at 0.123 µM came out at 82.9%, the inhibition at 0.37 µM turned out to be 89.9% and the inhibition at 1.1 µM was determined as 95.7%. In addition, the inhibition at 3.3 µM under setting [1] was 98.7%. Also, under setting [2], the inhibition at 10 µM worked out at 108%. Moreover, under setting [3], the inhibition at 30 µM came to 98.3%.
`O=c1oc2c(c(O)c1C(c1cccc(NS(=O)(=O)c3ccc(Cl)cc3)c1)C1CC1)CCCCCC2` (centres unmarked) [Example 264, 4-Chloro-N-[3-[cyclopropyl(5,6,7,8,9,10-hexahydro4-hydroxy-oxo-2H-cycloocta[b]pyran-3-yl)methyl]phenyl]-benzenesulfonamide]: the inhibition at 0.123 µM was determined as 78.5%, the inhibition at 0.37 µM was found to be 89% and the inhibition at 1.1 µM stood at 99.8%. For the same molecule, the inhibition at 3.3 µM under setting [1] stood at 104%. In addition, the inhibition at 10 µM under setting [2] was found to be 108%. Under setting [3], the inhibition at 30 µM amounted to 109%.
Turning to `O=c1oc2c(c(O)c1C(c1cccc(NS(=O)(=O)c3ccc4ccccc4c3)c1)C1CC1)CCCCCC2` (centres unmarked) [Example 266, N-[3-[Cyclopropyl(5,6,7,8,9,10-hexahydro-4-hydroxy-2-oxo-2H-cycloocta[b]pyran-3-yl)methyl]phenyl]-2-naphthalenesulfonamide], the inhibition at 0.123 µM is 79.8%, the inhibition at 0.37 µM amounted to 88.4% and the inhibition at 1.1 µM is 104%. Also, the inhibition at 3.3 µM under setting [1] is 100%. Moreover, the inhibition at 10 µM under setting [2] was found to be 105%. Under setting [3], the inhibition at 30 µM amounted to 103%.
As to `O=c1oc2c(c(O)c1C(c1cccc(NS(=O)(=O)c3ccc(C(F)(F)F)cc3)c1)C1CC1)CCCCCC2` (centres unmarked) [Example 267, N-[3-[Cyclopropyl(5,6,7,8,9,10-hexahydro-4-hydroxy-2-oxo-2H-cycloocta[b]pyran-3-yl)methyl]phenyl]-4-(trifluoromethyl)-benzenesulfonamide], the inhibition at 0.123 µM was determined as 71.5%, the inhibition at 0.37 µM came to 83.9% and the inhibition at 1.1 µM was found to be 92%. Moreover, the inhibition at 3.3 µM under setting [1] was determined as 107%. Moreover, under setting [2], the inhibition at 10 µM was determined as 107%. For the same molecule, the inhibition at 30 µM under setting [3] was found to be 110%.
`O=c1oc2c(c(O)c1C(c1cccc(NS(=O)(=O)c3cccc4ccccc34)c1)C1CC1)CCCCCC2` (centres unmarked) [Example 270, N-[3-[Cyclopropyl(5,6,7,8,9,10-hexahydro4-hydroxy-2-oxo-2H-cycloocta[b]pyran-3-yl)methyl]phenyl]-1-naphthalenesulfonamide]: the inhibition at 0.123 µM was found to be 61.7%, the inhibition at 0.37 µM was found to be 93.1% and the inhibition at 1.1 µM is 107%. The inhibition at 3.3 µM under setting [1] came to 111%. The inhibition at 10 µM under setting [2] came out at 116%. For the same molecule, the inhibition at 30 µM under setting [3] worked out at 115%.
`O=c1oc2c(c(O)c1C(c1cccc(NS(=O)(=O)c3cc(Cl)ccc3Cl)c1)C1CC1)CCCCCC2` (centres unmarked) [Example 271, 2,5-Dichloro-N-[3-[cyclopropyl(5,6,7,8,9,10-hexahydro-4-hydroxy-2-oxo-2H-cycloocta[b]pyran-3-yl)methyl]phenyl]-benzenesulfonamide]: the inhibition at 0.37 µM worked out at 16.7% and the inhibition at 1.1 µM amounted to 47.5%. Further, under setting [1], the inhibition at 3.3 µM turned out to be 75.3%. The inhibition at 10 µM under setting [2] was 88.8%. Moreover, under setting [3], the inhibition at 30 µM is 94.2%.
`O=c1oc2c(c(O)c1C(c1cccc(NS(=O)(=O)c3ccc(Br)cc3)c1)C1CC1)CCCCCC2` (centres unmarked) [Example 272, 4-Bromo-N-[3-[cyclopropyl(5,6,7,8,9,10-hexahydro-4-hydroxy-2-oxo-2H-cycloocta[b]pyran-3-yl)methyl]phenyl]-benzenesulfonamide]: the inhibition at 0.123 µM came to 67.1%, the inhibition at 0.37 µM came to 85.2% and the inhibition at 1.1 µM is 95.3%. In addition, the inhibition at 3.3 µM under setting [1] was found to be 96.2%. Under setting [2], the inhibition at 10 µM was 101%. Also, the inhibition at 30 µM under setting [3] was 104%.
For `O=c1oc2c(c(O)c1C(c1cccc(NS(=O)(=O)c3ccc([N+](=O)[O-])cc3)c1)C1CC1)CCCCCC2` (centres unmarked) [Example 273, N-[3-[Cyclopropyl(5,6,7,8,9,10-hexahydro-4-hydroxy-4-oxo-2H-cycloocta[b]pyran-3-yl)methyl]phenyl]4-nitro-benzenesulfonamide], the inhibition at 0.123 µM came to 68.4%, the inhibition at 0.37 µM worked out at 92.3% and the inhibition at 1.1 µM was 95.9%. The inhibition at 3.3 µM under setting [1] was found to be 98.2%. For the same molecule, under setting [2], the inhibition at 10 µM came out at 102%. In addition, the inhibition at 30 µM under setting [3] was found to be 108%.
In the case of `O=c1oc2c(c(O)c1C(c1cccc(NS(=O)(=O)c3cccc([N+](=O)[O-])c3)c1)C1CC1)CCCCCC2` (centres unmarked) [Example 274, N-[3-[Cyclopropyl(5,6,7,8,9,10-hexahydro-4-hydroxy-2-oxo-2H-cycloocta[b]pyran-3-yl)methyl]phenyl]-3-nitro-benzenesulfonamide], the inhibition at 0.123 µM was found to be 70%, the inhibition at 0.37 µM worked out at 88.2% and the inhibition at 1.1 µM was determined as 95.8%. Also, the inhibition at 3.3 µM under setting [1] is 98.8%. Besides, the inhibition at 10 µM under setting [2] came out at 103%. Moreover, under setting [3], the inhibition at 30 µM is 105%.
For the molecule `COc1ccc(S(=O)(=O)Nc2cccc(C(c3c(O)c4c(oc3=O)CCCCCC4)C3CC3)c2)cc1` (centres unmarked) [Example 275, N-[3-[Cyclopropyl(5,6,7,8,9, 10-hexahydro-4-hydroxy-2-oxo-2H-cycloocta[b]pyran-3-yl)methyl]phenyl]-4-methoxy-benzenesulfonamide], the inhibition at 0.123 µM was 79.3%, the inhibition at 0.37 µM was 120% and the inhibition at 1.1 µM is 128%. Under setting [1], the inhibition at 3.3 µM was determined as 131%. Besides, under setting [2], the inhibition at 10 µM is 133%. For the same molecule, the inhibition at 30 µM under setting [3] stood at 131%.
Turning to `O=C(O)c1ccc(S(=O)(=O)Nc2cccc(C(c3c(O)c4c(oc3=O)CCCCCC4)C3CC3)c2)cc1` (centres unmarked) [Example 276, 4-[[[3-[Cyclopropyl(5,6,7,8,9,10-hexahydro-4-hydroxy-2-oxo-2H-cycloocta[b]pyran-3-yl)methyl]phenyl]amino]sulfonyl]-benzoic acid], the inhibition at 0.123 µM is 53.4%, the inhibition at 0.37 µM came out at 92.8% and the inhibition at 1.1 µM turned out to be 99.3%. Under setting [1], the inhibition at 3.3 µM came to 94.7%. The inhibition at 10 µM under setting [2] stood at 112%. The inhibition at 30 µM under setting [3] was 124%.
For `Cc1cc(C)c(S(=O)(=O)Nc2cccc(C(c3c(O)c4c(oc3=O)CCCCCC4)C3CC3)c2)c(C)c1` (centres unmarked) [Example 277, N-[3-[Cyclopropyl(5,6,7,8,9,10-hexahydro-4-hydroxy-2-oxo-2H-cycloocta[b]pyran-3-yl)methyl]phenyl]-2,4,6-trimethyl-benzenesulfonamide], the inhibition at 3.3 µM (dose 3.300 uM, read-out: HIV-1 Protease % Inhib) is 37.9%. In addition, where the note is “dose 10.000 uM, read-out: HIV-1 Protease % Inhib”, the inhibition at 10 µM was found to be 79.9%. Besides, the inhibition at 30 µM (dose 30.000 uM, read-out: HIV-1 Protease % Inhib) is 94.1%.
As to `O=c1oc2c(c(O)c1C(c1cccc(NS(=O)(=O)c3ccc(F)cc3F)c1)C1CC1)CCCCCC2` (centres unmarked) [Example 279, N-[3-[Cyclopropyl(5,6,7,8,9,10-hexahydro-4-hydroxy-2-oxo-2H-cycloocta[b]pyran-3-yl)methyl]phenyl]-2,4-difluoro-benzenesulfonamide], the inhibition at 0.123 µM stood at 78.2%, the inhibition at 0.37 µM was 97.3% and the inhibition at 1.1 µM was 105%. For the same molecule, under setting [1], the inhibition at 3.3 µM is 103%. Under setting [2], the inhibition at 10 µM amounted to 109%. Under setting [3], the inhibition at 30 µM came out at 94.8%.

The values above are taken from US5686486A, “4-hydroxy-benzopyran-2-ones and 4-hydroxy-cycloalkyl[b]pyran-2-ones useful to treat retroviral infections” (priority 1995, dated 1997).
